From article PMC11643494, “Structure–Activity Relationship Studies in a Series of 2-Aryloxy-N-(pyrimidin-5-yl)acetamide Inhibitors of SLACK Potassium Channels” (Molecules, 2024)

Molecular target: T1, Human A934T SLACK (Homo sapiens, UniProt Q5JUK3, A915T)
T1 construct: host or cells: CHO-K1
T1 sequence (Q5JUK3 1-1235 isoform Q5JUK3-3 A934T): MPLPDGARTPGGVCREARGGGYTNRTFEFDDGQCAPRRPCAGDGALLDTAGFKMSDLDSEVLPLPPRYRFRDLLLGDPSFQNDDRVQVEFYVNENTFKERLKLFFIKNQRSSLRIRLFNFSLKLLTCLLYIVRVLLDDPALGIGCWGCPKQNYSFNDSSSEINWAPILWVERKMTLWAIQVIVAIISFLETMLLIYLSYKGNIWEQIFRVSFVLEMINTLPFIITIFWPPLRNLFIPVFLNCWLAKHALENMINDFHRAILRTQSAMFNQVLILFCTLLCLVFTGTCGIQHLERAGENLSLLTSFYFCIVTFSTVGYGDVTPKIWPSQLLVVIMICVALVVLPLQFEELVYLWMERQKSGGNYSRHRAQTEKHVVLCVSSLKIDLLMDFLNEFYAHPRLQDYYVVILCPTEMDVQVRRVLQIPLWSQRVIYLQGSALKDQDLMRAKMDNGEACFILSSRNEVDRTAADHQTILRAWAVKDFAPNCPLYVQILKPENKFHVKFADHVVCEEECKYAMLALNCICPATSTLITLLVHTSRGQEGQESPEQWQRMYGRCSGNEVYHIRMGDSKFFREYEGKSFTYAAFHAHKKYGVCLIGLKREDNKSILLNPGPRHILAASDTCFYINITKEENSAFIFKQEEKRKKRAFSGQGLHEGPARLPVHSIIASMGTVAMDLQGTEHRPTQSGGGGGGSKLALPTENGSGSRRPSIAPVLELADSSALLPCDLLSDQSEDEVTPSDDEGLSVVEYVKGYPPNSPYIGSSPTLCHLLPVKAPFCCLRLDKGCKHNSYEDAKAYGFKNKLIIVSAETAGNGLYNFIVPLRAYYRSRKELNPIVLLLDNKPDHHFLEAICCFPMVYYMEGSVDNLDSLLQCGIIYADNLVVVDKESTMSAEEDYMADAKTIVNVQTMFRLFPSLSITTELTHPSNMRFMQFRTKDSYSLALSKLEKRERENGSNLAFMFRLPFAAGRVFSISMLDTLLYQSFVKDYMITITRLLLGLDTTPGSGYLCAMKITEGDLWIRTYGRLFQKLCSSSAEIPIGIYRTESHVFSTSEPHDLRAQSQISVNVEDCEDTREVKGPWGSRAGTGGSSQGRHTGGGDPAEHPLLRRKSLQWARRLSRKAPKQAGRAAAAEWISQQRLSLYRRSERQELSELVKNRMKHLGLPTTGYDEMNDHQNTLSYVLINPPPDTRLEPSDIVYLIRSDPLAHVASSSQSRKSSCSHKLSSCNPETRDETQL
Assay: Whole-cell APC in CHO-K1 cells stably expressing human A934T SLACK
Type: cell-based
Conditions: for IC50: APC, CHO-K1 cells; for Imax: maximum inhibition at 30 µM standardized to VU0606170 (set at 100%)
Source text: Finally, we chose to screen the same two compounds versus mouse SLACK and two clinically relevant GOF SLACK mutants in APC assays utilizing CHO-K1 cells stably expressing these targets (Table 7). Screening versus the mouse homolog was deemed important for evaluating the potential of the series to ultimately lead to a useful in vivo tool via further optimization.
Stably transfected monoclonal HEK293 cell lines expressing SLICK, Maxi-K α1/β3, Maxi-K α1/β4, CaV3.2, GIRK 1/2, KV2.1, KV7.2, NaV1.7, and TASK-1 were generated as previously described. Stably transfected monoclonal HEK293 cell lines expressing hERG were generated as previously described. CHO-K1 cells expressing human SLACK and disease-associated human SLACK mutations, G288S and A934T, were generated by transfecting a PiggyBac TRE mammalian expression vector (VectorBuilder, Chicago, IL, USA) containing KCNT1. FuGENE 6 (Promega, Madison, WI, USA) transfection reagent and protocol, together with Opti-MEM (Thermo Fisher Scientific, Waltham, MA, USA), were utilized according to the manufacturer’s instructions.
Automated patch clamp recording was performed with a SyncroPatch 768 PE system (Nanion, Munich, Germany) as previously described. Whole-cell recordings were performed at room temperature. Cells were harvested by first washing with PBS without Mg^2+ or Ca^2+ (Gibco, Billings, MT, USA) to remove cell culture medium, followed by dissociation with TryPLE (Gibco, Billings, MT, USA). Cells were then resuspended and diluted to 200,000 cells/mL in external solution. External solution contained 105 mM NaCl, 4 mM KCl, 1 mM MgCl2, 5 mM CaCl2, 10 mM HEPES, 40 mM N-Methyl-D-glucamine chloride, titrated to pH 7.4 with NaOH and osmolarity of 300 mOsm/kg; internal solution contained 70 mM NaCl, 70 mM KF, 10 mM KCl, 5 mM EGTA, 5mM HEPES, titrated to a pH 7.2 with KOH and osmolarity of 295 mOsm/kg.
The APC protocol was set as following: Cells were held at […] −80 mV for 100 ms, then a ramp protocol was performed from −100 mV to 80 mV at 0.4 mV/ms, hold the cell at −80 mV for another 100 ms, then steps were performed at −20 mV, 0 mV, +20 mV, +40 mV, and +60 mV for 100 ms of each step. Whole-cell currents were measured at 0 mV and normalized to current after external buffer addition.

Row | SMILES | IC50 [nM] | Imax [%]
1 | CC(C)(Oc1ccc(Cl)cc1)C(=O)Nc1cnc(Oc2c(F)cccc2F)nc1 [Analog 40] | 410 | 96
2 | CN(c1ccc(C#N)cc1)c1ncc(NC(=O)C(C)(C)Oc2ccc(Cl)cc2)cn1 [Analog 66] | 1200 | 84
